Results published in patent US5235055A, “Antipsychotic quinoline derivatives of benzodioxanmethylamine” (American Home Products Corporation, priority 1992, dated 1993).
Where two headings read alike, the source gives them in different places.

Columns and labels:
5-HT1A receptor = conditions: Fozard et al. 1987, cited from earlier work
synthesis of dopamine = assay: Effect on dopamine synthesis: inhibition of dopa accumulation in GBL/NSD-1015-treated rats (Walters and Roth); assay type: in vivo, rats (male, Sprague-Dawley); conditions: Rattus norvegicus, sc, read-out: Dopa Accumulation (% inhib. @ 10 mg/kg, sc)
Procedure: The effect of the compounds of the invention on the synthesis of dopamine was established by the method of Walters and Roth, Naunyn-Schmiedeberg's Arch. Pharmacol. 296:5-14, 1976, in which rats (male, Sprague-Dawley, Charles River, 200-350 g) were administered vehicle or test drug ten minutes prior to the administration of gamma butyrolactone (GBL; 750 mg/kg, ip to inhibit dopaminergic impulse flow) and 20 minutes prior to NSD-1015 (100 mg/kg, ip to prevent the conversion of dopa to dopamine). Thirty minutes after NSD-1015 all rats were decapitated and the nucleus accumbens and the striatum were removed for analysis. Following perchloric acid extraction of the tissue, the extracts were placed over alumina columns to collect and concentrate dopa and other catechols. This eluate was then subjected to HPLC analysis using electrochemical detection to quantify the levels of dopa present. Dopamine autoreceptor agonists, under the conditions used above, inhibit dopa accumulation.

mouse locomotor activity = assay: Reduction of mouse locomotor activity (hypolocomotion; Martin and Bendensky); assay type: in vivo, mice (male, CF-1); conditions: ip, horizontal activity counts 10 to 20 minutes after dosing
Procedure: The antipsychotic activity of the compounds of the invention was further established by a determination of the compounds' ability to reduce mouse locomotor activity according to the method of Martin and Bendensky, J. Pharmacol. Exp. Therap. 229:706-711, 1984, in which mice (male, CF-1, Charles River, 20-30 g) were injected with vehicle or various doses of each drug and locomotor activity was measured for 30 minutes using automated infrared activity monitors (Omnitech--8×8 inch open field) located in a darkened room. ED50 's were calculated from the horizontal activity counts collected from 10 to 20 minutes after dosing using a nonlinear regression analysis with inverse prediction.

dopamine D2 receptor = target: T1, dopamine D2 receptor (Rattus norvegicus, UniProt P61169); assay: Affinity for dopamine D2 receptor (3H-quinpirole, rat striatal homogenate); assay type: binding; conditions: rat striatal brain tissue
T1 construct: homogenized rat striatal brain tissue; from tissue; host or cells: rat striatum (homogenized brain tissue)
T1 sequence (P61169 whole entry): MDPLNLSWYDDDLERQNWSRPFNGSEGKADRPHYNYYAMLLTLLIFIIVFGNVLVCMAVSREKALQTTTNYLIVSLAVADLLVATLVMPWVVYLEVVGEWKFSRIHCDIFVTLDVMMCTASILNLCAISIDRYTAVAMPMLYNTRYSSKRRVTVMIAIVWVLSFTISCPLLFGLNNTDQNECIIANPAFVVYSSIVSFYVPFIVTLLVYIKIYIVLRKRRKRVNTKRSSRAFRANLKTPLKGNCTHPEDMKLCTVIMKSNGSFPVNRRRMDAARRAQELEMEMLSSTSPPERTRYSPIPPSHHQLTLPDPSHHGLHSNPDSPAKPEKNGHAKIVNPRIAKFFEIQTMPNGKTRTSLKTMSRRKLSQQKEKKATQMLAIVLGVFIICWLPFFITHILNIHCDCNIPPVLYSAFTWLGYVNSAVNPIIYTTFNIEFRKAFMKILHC
Procedure: Affinity for the dopamine D2 receptor was established by a modification of the standard experimental test procedure of Seemen and Schaus, European Journal of Pharmacology 203: 105-109, 1991, wherein homogenized rat striatal brain tissue is incubated with ^3 H-quinpirole and various concentrations of test compound, filtered and washed and counted in a Betaplate scintillation counter.

Compound | inhibition at 0.1 µM (dopamine D2 receptor) [%] | inhibition at 10 mg/kg (synthesis of dopamine; limbic (L) brain tissue) [%] | ED50 (mouse locomotor activity) [mg/kg] | other results
O=C1CC2(CCCC2)CC(=O)N1CCCCNCC1COc2ccccc2O1 (single isomer, unassigned; (-)) [(-)-MDL 72832] |  |  |  | binding at the 5-HT1A receptor site relative to the dextrorotary isomer (times as much) (5-HT1A receptor; (-)-isomer vs dextrorotary isomer): 32 times
c1ccc2c(c1)OCC(CNCCCOc1ccc3cccnc3c1)O2 (centres unmarked) [Example 1, N-[3-(Quinolin-7-yloxy)propyl]-2,3-dihydro-1,4-benzodioxin-2-methanamine] |  | 29 |  | inhibition at 10 mg/kg (synthesis of dopamine; striatal (S) brain tissue): 44%
c1cnc2cc(OCCCNCC3COc4cc5c(cc4O3)OCO5)ccc2c1 (centres unmarked) [Example 2, N-[3-(Quinolin-7-yloxy)propyl]-2,3-dihydro-6,7-methylenedioxy-1,4-benzodioxin-2-methanamine] |  | 60.4 | 3 | IC50 (dopamine D2 receptor): 63 nM
O=C1CC2(CCCC2)CC(=O)N1CCCCNCC1COc2ccccc2O1 (centres unmarked) [MDL 72832, 8-[4-(1,4-benzodioxan-2-ylmethylamino)butyl]-8-azaspiro[4.5]decane-7,9-dione] |  |  |  | ligand for 5-HT1A receptors (in words) (5-HT1A receptor): selective and stereospecific

Now from value to compound, other results behind:

inhibition at 0.1 µM (dopamine D2 receptor) [%] | Compound | inhibition at 10 mg/kg (synthesis of dopamine; limbic (L) brain tissue) [%] | ED50 (mouse locomotor activity) [mg/kg] | other results
25 | c1cc(OCCCNCC2COc3cc4c(cc3O2)OCO4)c2cccnc2c1 (centres unmarked) [Example 3, N-[3-(Quinolin-5-yloxy)propyl]-2,3-dihydro-6,7-methylenedioxy-1,4-benzodioxin-2-methanamine] | 42.6 | 12.6 | 
55 | COc1ccc2c(c1)OC(CNCCCOc1ccc3cccnc3c1)CO2 (centres unmarked) [Example 4, N-[3-(Quinolin-7-yloxy)propyl]-2,3-dihydro-7-methoxy-1,4-benzodioxin-2-methanamine] |  |  | 
